Experimental data: PubChem BioAssay AID248 (DTP/NCI, 2004)
Where “and” joins values, the source holds several entries; their conditions need not be identical. Equal entries are not always repeated. Inconclusive results and toxic doses are left out.

Test system: L1210 leukemia ip in BDF1 mice, survival T/C
Assay: NCI In Vivo Anticancer Drug Screen. Data for tumor model L1210 Leukemia (intraperitoneal) in B6D2F1 (BDF1) mice
Details: endpoint: mean survival time, higher = longer survival
Outline: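 Read-out is survival time, reported as the treated-group measurement over the vehicle-control measurement.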

[1] = dose: 100.0 mg/kg/injection, schedule: Q01DX009 (ip), vehicle: saline with Tween-80
[2] = dose: 100.0 mg/kg/injection, schedule: Q04DX003 (ip), vehicle: saline with Tween-80
[3] = dose: 100.0 mg/kg/injection, schedule: Q01DX001 (ip), vehicle: saline
[4] = dose: 200.0 mg/kg/injection, schedule: Q01DX001 (ip), vehicle: saline
[5] = dose: 400.0 mg/kg/injection, schedule: Q01DX001 (ip), vehicle: saline
[6] = dose: 25.0 mg/kg/injection, schedule: Q01DX009 (ip), vehicle: saline with Tween-80
[7] = dose: 50.0 mg/kg/injection, schedule: Q01DX009 (ip), vehicle: saline with Tween-80
[8] = dose: 100.0 mg/kg/injection, schedule: Q04DX002 (ip), vehicle: saline with Tween-80
[9] = dose: 100.0 mg/kg/injection, schedule: Q04DX002 (ip), vehicle: Klucel (hydroxypropylcellulose) (HPC)
[10] = dose: 200.0 mg/kg/injection, schedule: Q04DX002 (ip), vehicle: Klucel (hydroxypropylcellulose) (HPC)
[11] = dose: 400.0 mg/kg/injection, schedule: Q04DX002 (ip), vehicle: Klucel (hydroxypropylcellulose) (HPC)
[12] = dose: 100.0 mg/kg/injection, schedule: Q01DX009 (ip), vehicle: Klucel (hydroxypropylcellulose) (HPC)
[13] = dose: 200.0 mg/kg/injection, schedule: Q01DX009 (ip), vehicle: Klucel (hydroxypropylcellulose) (HPC)
[14] = dose: 400.0 mg/kg/injection, schedule: Q01DX009 (ip), vehicle: Klucel (hydroxypropylcellulose) (HPC)
[15] = dose: 100.0 mg/kg/injection, schedule: Q01DX009 (ip), vehicle: saline

With c1ccc(OCC2CO2)cc1 (stereo not given) the T/C (dose: 50.0 mg/kg/injection, schedule: Q01DX001 (ip), vehicle: carboxymethylcellulose (CMC)) was 100 % of control, the T/C (dose: 100.0 mg/kg/injection, schedule: Q01DX001 (ip), vehicle: carboxymethylcellulose (CMC)) was 100 % of control and the T/C [1] was 96 % of control. For the same compound, the T/C [2] was 95 % of control, the T/C (dose: 200.0 mg/kg/injection, schedule: Q01DX001 (ip), vehicle: carboxymethylcellulose (CMC)) was 105 % of control and the T/C (dose: 200.0 mg/kg/injection, schedule: Q01DX009 (ip), vehicle: saline with Tween-80) was 93 % of control. For the same compound, the T/C (dose: 200.0 mg/kg/injection, schedule: Q04DX003 (ip), vehicle: saline with Tween-80) was 97 % of control, the T/C (dose: 400.0 mg/kg/injection, schedule: Q01DX001 (ip), vehicle: carboxymethylcellulose (CMC)) was 97 % of control and the T/C (dose: 400.0 mg/kg/injection, schedule: Q01DX009 (ip), vehicle: saline with Tween-80) was 98 % of control. For the same compound, the T/C (dose: 400.0 mg/kg/injection, schedule: Q04DX003 (ip), vehicle: saline with Tween-80) was 97 % of control.
With COC1OC(COC(C)=O)C(N(C)C(C)=O)C1OC(C)=O (stereo not given) the T/C [3] was 96 % of control, the T/C [4] was 90 % of control and the T/C [5] was 94 % of control.
For Cc1ccc(S(=O)(=O)Cl)cc1C(=O)O, the T/C (dose: 12.5 mg/kg/injection, schedule: Q01DX001 (ip), vehicle: saline with Tween-80) was 92 % of control and 99 % of control, the T/C (dose: 25.0 mg/kg/injection, schedule: Q01DX001 (ip), vehicle: saline with Tween-80) was 99 % of control and 87 % of control and the T/C [6] was 102 % of control. The T/C (dose: 25.0 mg/kg/injection, schedule: Q04DX003 (ip), vehicle: saline with Tween-80) was 103 % of control, the T/C [7] was 93 % of control and the T/C (dose: 50.0 mg/kg/injection, schedule: Q04DX002 (ip), vehicle: saline with Tween-80) was 96 % of control and 108 % of control. The T/C (dose: 50.0 mg/kg/injection, schedule: Q04DX003 (ip), vehicle: saline with Tween-80) was 97 % of control, the T/C (dose: 100.0 mg/kg/injection, schedule: Q01DX001 (ip), vehicle: saline with Tween-80) was 94 % of control and 95 % of control and the T/C [1] was 96 % of control. The T/C [8] was 104 % of control and 86 % of control and 90 % of control and the T/C [2] was 98 % of control.
For CCCCCCCCCCCCCCCC[N+]1(CC)CCCC1, the T/C (dose: 25.0 mg/kg/injection, schedule: Q04DX002 (ip), vehicle: saline) was 96 % of control and the T/C (dose: 50.0 mg/kg/injection, schedule: Q04DX002 (ip), vehicle: saline) was 96 % of control.
For CC1=CC(=N\S(=O)(=O)c2ccccc2)/c2ccccc2/C1=N/S(=O)(=O)c1ccccc1, the T/C (dose: 25.0 mg/kg/injection, schedule: Q01DX001 (ip), vehicle: saline sonified) was 92 % of control, the T/C (dose: 50.0 mg/kg/injection, schedule: Q01DX001 (ip), vehicle: saline sonified) was 95 % of control and the T/C (dose: 100.0 mg/kg/injection, schedule: Q01DX001 (ip), vehicle: saline sonified) was 95 % of control.
In the case of COC(=O)COc1ccc2ccccc2c1Cl, the T/C [9] is reported as 86 % of control, the T/C [10] is reported as 99 % of control and the T/C [11] is reported as 96 % of control.
With c1ncc(OCCN2CC2)nc1OCCN1CC1 the T/C (dose: 0.12 mg/kg/injection, schedule: Q01DX009 (ip), vehicle: carboxymethylcellulose (CMC)) was 102 % of control, the T/C (dose: 0.25 mg/kg/injection, schedule: Q01DX009 (ip), vehicle: carboxymethylcellulose (CMC)) was 108 % of control and the T/C (dose: 0.5 mg/kg/injection, schedule: Q01DX009 (ip), vehicle: carboxymethylcellulose (CMC)) was 102 % of control. The T/C (dose: 0.5 mg/kg/injection, schedule: Q01DX009 (ip), vehicle: saline) was 97 % of control, the T/C (dose: 1.0 mg/kg/injection, schedule: Q01DX009 (ip), vehicle: carboxymethylcellulose (CMC)) was 95 % of control and the T/C (dose: 1.0 mg/kg/injection, schedule: Q01DX009 (ip), vehicle: saline) was 97 % of control. The T/C (dose: 3.0 mg/kg/injection, schedule: Q01DX009 (ip), vehicle: saline) was 156 % of control, the T/C (dose: 11.1 mg/kg/injection, schedule: Q01DX001 (ip), vehicle: carboxymethylcellulose (CMC)) was 124 % of control and the T/C (dose: 11.1 mg/kg/injection, schedule: Q01DX001 (ip), vehicle: saline) was 120 % of control.
CCOC(=O)c1cc([N+](=O)[O-])ccc1N was tested, and the T/C [3] was 100 % of control, the T/C [4] was 94 % of control and the T/C [5] was 94 % of control.
In the case of CCOC(=O)c1cnc(SC)nc1Nc1ccc(Cl)cc1Cl, the T/C [12] is reported as 103 % of control, the T/C [13] is reported as 97 % of control and the T/C [14] is reported as 92 % of control.
With CCC(C)(C)C(=O)OCc1ccccc1 the T/C (dose: 50.0 mg/kg/injection, schedule: Q04DX002 (ip), vehicle: Klucel (hydroxypropylcellulose) (HPC)) was 105 % of control, the T/C [9] was 94 % of control and the T/C [10] was 94 % of control and 111 % of control. For the same compound, the T/C [11] was 103 % of control.
Cc1ccccc1Nc1c(C)cccc1C(=O)O was tested, and the T/C [15] was 100 % of control, the T/C (dose: 200.0 mg/kg/injection, schedule: Q01DX009 (ip), vehicle: saline) was 92 % of control and the T/C (dose: 400.0 mg/kg/injection, schedule: Q01DX009 (ip), vehicle: saline) was 86 % of control.
In the case of O=C(Nc1cccc(Cl)c1)c1ccc(Cl)c(Cl)c1, the T/C [9] is reported as 110 % of control, the T/C [10] is reported as 113 % of control and the T/C [11] is reported as 93 % of control.
CS(=O)(=O)Oc1ccccc1OS(C)(=O)=O was tested, and the T/C [8] was 91 % of control and the T/C (dose: 200.0 mg/kg/injection, schedule: Q04DX002 (ip), vehicle: saline with Tween-80) was 107 % of control.
With CCCCCCCCCCCCCCCCCC[N+](C)=C1SCCS1 the T/C (dose: 1.56 mg/kg/injection, schedule: Q01DX009 (ip), vehicle: Klucel (hydroxypropylcellulose) (HPC)) was 94 % of control, the T/C (dose: 3.13 mg/kg/injection, schedule: Q01DX009 (ip), vehicle: Klucel (hydroxypropylcellulose) (HPC)) was 105 % of control and the T/C (dose: 6.25 mg/kg/injection, schedule: Q01DX009 (ip), vehicle: Klucel (hydroxypropylcellulose) (HPC)) was 105 % of control.
For O=C(N/N=C\c1ccc(Cl)cc1)C(O)C(O)C(O)C(O)CO (stereo not given), the T/C [12] was 100 % of control, the T/C [13] was 91 % of control and the T/C [14] was 89 % of control.
In the case of C[n+]1csc(=S)[nH]1, the T/C [15] is reported as 98 % of control.
With O=[N+]([O-])c1ccc(C(O)Nc2nccs2)o1 (stereo not given) the T/C [6] was 96 % of control and the T/C [7] was 117 % of control.
COc1cccc2c1N=c1c(Cl)c3c(c(Cl)c1O2)=Nc1c(OC)cccc1O3 was tested, and the T/C (dose: 100.0 mg/kg/injection, schedule: Q04DX003 (ip), vehicle: Klucel (hydroxypropylcellulose) (HPC)) was 106 % of control, the T/C (dose: 200.0 mg/kg/injection, schedule: Q04DX003 (ip), vehicle: Klucel (hydroxypropylcellulose) (HPC)) was 102 % of control and the T/C (dose: 400.0 mg/kg/injection, schedule: Q04DX003 (ip), vehicle: Klucel (hydroxypropylcellulose) (HPC)) was 113 % of control.
In the case of CCCCCOc1cc([N+](=O)[O-])c(OCCCCC)cc1N1CCN(C(C)=O)CC1, the T/C (dose: 100.0 mg/kg/injection, schedule: Q04DX003 (sc), vehicle: olive oil, sesame oil, peanut oil) is reported as 100 % of control, the T/C (dose: 200.0 mg/kg/injection, schedule: Q04DX003 (sc), vehicle: olive oil, sesame oil, peanut oil) is reported as 96 % of control and the T/C (dose: 400.0 mg/kg/injection, schedule: Q04DX003 (sc), vehicle: olive oil, sesame oil, peanut oil) is reported as 105 % of control.
In the case of CN(N)C(=O)Nc1ccccc1, the T/C (dose: 75.0 mg/kg/injection, schedule: Q01DX001 (ip), vehicle: carboxymethylcellulose (CMC)) is reported as 100 % of control and the T/C (dose: 150.0 mg/kg/injection, schedule: Q01DX001 (ip), vehicle: carboxymethylcellulose (CMC)) is reported as 100 % of control.
In the case of O=C1OCCN1CCO, the T/C (dose: 100.0 mg/kg/injection, schedule: Q04DX003 (ip), vehicle: saline) is reported as 97 % of control, the T/C (dose: 200.0 mg/kg/injection, schedule: Q04DX003 (ip), vehicle: saline) is reported as 102 % of control and the T/C (dose: 400.0 mg/kg/injection, schedule: Q04DX003 (ip), vehicle: saline) is reported as 108 % of control.
O=C(O)COc1c(Br)cc(F)cc1Br was tested, and the T/C (dose: 100.0 mg/kg/injection, schedule: Q04DX002 (ip), vehicle: other) was 103 % of control, the T/C (dose: 200.0 mg/kg/injection, schedule: Q04DX002 (ip), vehicle: other) was 109 % of control and 90 % of control and the T/C (dose: 400.0 mg/kg/injection, schedule: Q04DX002 (ip), vehicle: other) was 100 % of control and 86 % of control.
CCN(CC)CCN(CC)C(=S)Nc1ccccc1 was tested, and the T/C (dose: 12.5 mg/kg/injection, schedule: Q01DX009 (ip), vehicle: Klucel (hydroxypropylcellulose) (HPC)) was 117 % of control, the T/C (dose: 25.0 mg/kg/injection, schedule: Q01DX009 (ip), vehicle: Klucel (hydroxypropylcellulose) (HPC)) was 109 % of control and the T/C (dose: 50.0 mg/kg/injection, schedule: Q01DX009 (ip), vehicle: Klucel (hydroxypropylcellulose) (HPC)) was 102 % of control.
